Data on 3 substances can be found in publication PMC10731459, “A SARS-CoV-2 NSP7 homolog of a Treg epitope suppresses CD4+ and CD8+ T cell memory responses” (Frontiers in Immunology, 2023).

The subject of assay [1] is human CD4+ T cells. The assay is classed as cell-based.
The target in assay [2] is T1, HLA-DRB1*15:01 (Homo sapiens, UniProt P01903+P01911).
T1 construct: purchased Benaroya Research Institute, Seattle, Washington
Description: biochemical. Type of assay: binding.

Assay [3] deals with HLA-DRB1*07:01 (Homo sapiens, UniProt P01903+P01911, A100R/A102G/A103Q/D57E/D86V/E43K/F76Y/K127E/L162R/M171V/P40G/Q125H/Q99D/R33Q/R42Y/R54Q/S133A/S66F/T210M/V115G/Y107V/Y59L/Y89S). The experiment in a line: HLA binding assay, DRB1*07:01.
In assay [4] the target is T2, HLA-DRB1*01:01 (Homo sapiens, UniProt P01903+P01911, A100R/D57E/F55L/F60I/F76Y/I96L/L162R/M171V/P40L/Q125E/R42F/V115G/Y59C).
T2 construct: purchased Benaroya Research Institute, Seattle, Washington
Description: HLA binding assay, DRB1*01:01.

Assay [5] has as its target HLA-DRB1*11:01 (Homo sapiens, UniProt P01903+P01911, A100R/A169T/A87E/I96F/K41T/L162R/M171V/P40S/Q125H/Q178H/Q39Y/Q99D/R42S/S66Y/T262R/V115G/W38E). The experiment in a line: HLA binding assay, DRB1*11:01.
In assay [6] the target is T3, HLA-DRB1*03:01 (Homo sapiens, UniProt P01903+P01911, A100K/A102G/A103R/A169T/F55Y/I96L/K41T/L162R/M171V/P40S/Q125H/Q178H/Q39Y/R42S/S66N/T106N/T262R/W38E/Y61H).
T3 construct: purchased Benaroya Research Institute, Seattle, Washington
Description: HLA binding assay, DRB1*03:01.

Assay [7] has as its target T4, HLA-DRB1*04:01 (Homo sapiens, UniProt P01903+P01911, A100K/A169T/F76Y/I96L/K127E/L162R/M171V/N62H/P40V/Q125Y/R42H/S133A/S149N/S66Y/V115G/V209L/W38E).
T4 construct: purchased Benaroya Research Institute, Seattle, Washington
Description: HLA binding assay, DRB1*04:01.

In assay [8] the target is HLA-DRB1*09:01 (Homo sapiens, UniProt P01903+P01911, A100R/A103E/D57H/D86V/F55Y/F60I/F76Y/I96F/K127E/L162R/M171V/P40D/Q125H/Q99R/R33Q/R42F/S133A/S66N/T210M/V115G/W38K/Y107V/Y59G/Y89S). The experiment in a line: HLA binding assay, DRB1*09:01.

Like-named read-outs stand apart in the source and are kept apart here. Where no end group is shown, it is not given here.

Chain of HLA-DRB1*11:01 (P01903 26-254 limits assumed, other chains not shown): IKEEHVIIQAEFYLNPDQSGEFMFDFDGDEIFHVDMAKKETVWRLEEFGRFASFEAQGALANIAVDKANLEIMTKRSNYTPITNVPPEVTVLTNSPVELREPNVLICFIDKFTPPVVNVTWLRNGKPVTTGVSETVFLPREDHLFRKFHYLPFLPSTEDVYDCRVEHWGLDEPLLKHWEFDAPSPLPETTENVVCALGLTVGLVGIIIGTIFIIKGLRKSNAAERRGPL

Regarding “TT: TT (Astarte Biologics, cat no. 1002), stimulating antigen”, the “increase of CD4+ T cell proliferation by TT stimulation” value in assay [1] is “roughly 20 fold”.

What is called IC50 is the midpoint of a concentration-inhibition curve. On to KSTYRVVSVLTVLHQD-NH2 [Tregitope 289z], for which the IC50 in assay [2] is 2.52 µM; in assay [3], 0.2 µM; in assay [4] it was 0.16 µM; in assay [5], 0.48 µM; in assay [6], 8.99 µM; in assay [7], 0.65 µM. For the same substance, the IC50 in assay [8] amounted to 0.22 µM.

As for EKMVSLLSVLLSM [NSP7-289], the IC50 in assay [2] (read-out: HLA-DRB1 (IC50) *1501) is 0.2 µM; in assay [3] (read-out: HLA-DRB1 (IC50) *0701), 2.68 µM; in assay [4] (read-out: HLA-DRB1 (IC50) *0101), 0.27 µM; in assay [5] (read-out: HLA-DRB1 (IC50) *1101), 3.24 µM; in assay [6] (read-out: HLA-DRB1 (IC50) *0301), 31 µM; in assay [7] (read-out: HLA-DRB1 (IC50) *0401), 28.8 µM. Besides, the IC50 in assay [8] (read-out: HLA-DRB1 (IC50) *0901) was found to be 7.79 µM.
